The pIC50 is the negative decadic logarithm of the IC50, by convention in mol/L. As a reminder, the IC50 is the point on the concentration scale where inhibition reaches its midpoint.

Among the data in US20230391748A1, “BICYCLIC INHIBITORS OF IRAK” (priority 2022, published 2023) are IC50 values, retold here.

pIC50: −log10 of the molar value.

The subject of test [1] is TNF-α in Human Primary Monocyte-Derived Dendritic Cells. Put plainly: Gardiquimod-Induced TNF-α in Human Primary Monocyte-Derived Dendritic Cells. As to conditions: Dendritic cell, IFNγ-primed monocyte-derived dendritic cells, 4 μg/ml Gardiquimod, 6 hours, TNF-α ELISA, read-out: TNFα (DC, GARD) (IC50). It is filed as cell-based. The gist of the method:
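Monocytes differentiated 7 days with GM-CSF and IL-4, then primed 24 h with 50 ng/ml IFN-γ. Compound added 1 h before 6 h stimulation with 4 μg/ml Gardiquimod, 0.5% DMSO final. Supernatant TNF-α measured by chemiluminescent ELISA; EC50 from curve fitting.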

For test [2], the system named is IL23p19 in THP-1 Cells. Description: LPS Induced IL23p19 in THP-1 Cells (with IFNγ Primed) Assay. It is filed as cell-based. Particulars: Homo sapiens, THP-1, 18 h, read-out: IL23 (THP, LPS) (IC50, μM). In a few lines: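 THP-1 cells (50K/well) primed with IFNγ (50 ng/mL) about 18 h, then given compound and stimulated with LPS for 18 h at 37 °C. Secreted IL-23p19 measured by sandwich ELISA with chemiluminescent read-out, giving EC50. Cell Titer Glo used on the remaining cells for toxicity.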

Test [3] has as its system TNF-α in human PBMCs. Description: R848-induced TNF-α in human PBMCs Assay. It counts as cell-based. As to conditions: Homo sapiens, PBMC, 4 h, read-out: TNFα (PBMC, R848) (IC50, μM). The gist of the method:
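Human PBMCs at 200K/well were pretreated with compound, then R848-stimulated for 4 h at 37 °C, 5% CO2. Supernatant TNF-α quantified by chemiluminescent ELISA; EC50 from curve fitting.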

The target in test [4] is IRAK4 (Homo sapiens (Human), UniProt Q9NWZ3). Description: IRAK4 ADP-Glo Assay. It counts as biochemical. As to conditions: MBP substrate. In a few lines: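 Human IRAK4 kinase reaction with MBP substrate plus ATP in Tris-HCl/MgCl2/BSA/DTT buffer, pH 7.4, run 60 min at room temperature or 30 min at 30 °C. ADP formed was measured by ADP-Glo luminescence after ATP depletion (40 min) and detection reagent (30 min).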
Chain of IRAK4 (Q9NWZ3 whole entry): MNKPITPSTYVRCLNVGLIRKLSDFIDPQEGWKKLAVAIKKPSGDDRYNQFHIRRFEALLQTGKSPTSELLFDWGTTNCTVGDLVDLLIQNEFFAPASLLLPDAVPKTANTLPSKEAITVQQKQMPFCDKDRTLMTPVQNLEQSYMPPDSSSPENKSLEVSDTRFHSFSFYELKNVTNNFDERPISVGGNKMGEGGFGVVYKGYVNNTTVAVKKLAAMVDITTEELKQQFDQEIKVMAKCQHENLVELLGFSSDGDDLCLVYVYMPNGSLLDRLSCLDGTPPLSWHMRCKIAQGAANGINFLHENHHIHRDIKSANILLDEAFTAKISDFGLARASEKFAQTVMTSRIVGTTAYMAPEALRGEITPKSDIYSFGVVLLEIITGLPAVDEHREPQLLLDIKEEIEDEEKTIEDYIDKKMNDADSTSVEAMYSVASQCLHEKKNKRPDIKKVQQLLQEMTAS
(ADP-Glo first removes unused ATP, then detects ADP through luciferase.)

Regarding `CC(C)Oc1cc2c(OC[C@@H]3CC(F)(F)C(=O)N3)ncc(-c3cnn([C@H]4CC[C@](C)(O)CC4)c3)c2cc1C(N)=O` [Compound I-78, 1-(((S)-4,4-difluoro-5-oxopyrrolidin-2-yl)methoxy)-4-(1-((1r,4S)-4-hydroxy-4-methylcyclohexyl)-1H-pyrazol-4-yl)-7-isopropoxyisoquinoline-6-carboxamide], the pIC50 in test [1] was 6.19; in test [4] it was 8.44. Also, the results for the 50% inhibitory concentration (IC50) in test [2] and in test [3] were 0.162 µM and 0.234 µM, respectively.
Turning to `CC(C)Oc1cc2c(O[C@@H]3CCCNC3)ncc(C#CC3CCOCC3)c2cc1C(N)=O` [Compound I-86, (R)-7-isopropoxy-1-(piperidin-3-yloxy)-4-((tetrahydro-2H-pyran-4-yl)ethynyl)isoquinoline-6-carboxamide], the pIC50 in test [1] is 5.99; in test [4], 7.04. The figures for the half-inhibitory concentration (IC50) in test [2] and in test [3] were 5.29 µM and 1.74 µM, respectively.
As for `CC(C)Oc1cc2c(O[C@@H]3CCCNC3)ncc(C#CCC3CCOCC3)c2cc1C(N)=O` [Compound I-87, (R)-7-isopropoxy-1-(piperidin-3-yloxy)-4-(3-(tetrahydro-2H-pyran-4-yl)prop-1-yn-1-yl)isoquinoline-6-carboxamide], the figures for the pIC50 in test [1] and in test [4] were 6.11 and 7.28, respectively. In addition, the half-inhibitory concentration (IC50) is 5.02 µM in test [2] and 1.97 µM in test [3].
In the case of `CC(C)Oc1cc2c(O[C@@H]3CCCN(C(=O)CC#N)C3)ncc(C#CC3(O)CCCC3)c2cc1C(N)=O` [Compound I-88, (R)-1-((1-(2-cyanoacetyl)piperidin-3-yl)oxy)-4-((1-hydroxycyclopentyl)ethynyl)-7-isopropoxyisoquinoline-6-carboxamide], the figures for the pIC50 in test [1] and in test [4] were 6.16 and 7.53, respectively. Besides, the IC50 in test [2] came to 2.07 µM; in test [3] it was 0.903 µM.
In the same order, the values of `CC(C)Oc1cc2c(O[C@@H]3CCCN(C(=O)CC#N)C3)ncc(C#CC3CCOCC3)c2cc1C(N)=O` [Compound I-89, (R)-1-((1-(2-cyanoacetyl)piperidin-3-yl)oxy)-7-isopropoxy-4-((tetrahydro-2H-pyran-4-yl)ethynyl)isoquinoline-6-carboxamide] are 6.28, 7.82, 1.71 µM and 0.556 µM.
Turning to `CC(C)Oc1cc2c(O[C@@H]3CCCN(C(=O)CC#N)C3)ncc(C#CCC3CCOCC3)c2cc1C(N)=O` [Compound I-90, (R)-1-((1-(2-cyanoacetyl)piperidin-3-yl)oxy)-7-isopropoxy-4-(3-(tetrahydro-2H-pyran-4-yl)prop-1-yn-1-yl)isoquinoline-6-carboxamide], the pIC50 in test [1] is 6.21; in test [4], 7.69. The half-maximal inhibitory concentration (IC50) in test [2] came out at 1.42 µM; in test [3] it was 0.433 µM.
Take `CC(C)Oc1cc2c(O[C@@H]3CCCN(C(=O)CC#N)C3)ncc(C#CC3(O)CCOCC3)c2cc1C(N)=O` [Compound I-91, (R)-1-((1-(2-cyanoacetyl)piperidin-3-yl)oxy)-4-((4-hydroxytetrahydro-2H-pyran-4-yl)ethynyl)-7-isopropoxyisoquinoline-6-carboxamide]: the pIC50 in test [1] is 4.81; in test [4] it was 7.68. The values for the IC50 in test [2] and in test [3] were 10.2 µM and 3.76 µM, respectively.
In the same order, the values of `CC(C)Oc1cc2c(O[C@@H]3CCCN(C(=O)CC#N)C3)ncc(C#CC3(O)CCN(C(=O)OC(C)(C)C)CC3)c2cc1C(N)=O` [Compound I-92, tert-butyl (R)-4-((6-carbamoyl-1-((1-(2-cyanoacetyl)piperidin-3-yl)oxy)-7-isopropoxyisoquinolin-4-yl)ethynyl)-4-hydroxypiperidine-1-carboxylate] are 4.86, 6.85, 4.92 µM and 3.7 µM.
`CC(C)Oc1cc2c(O[C@@H]3CCCN(C(=O)CC#N)C3)ncc(C#CC3CCN(C(=O)OC(C)(C)C)CC3)c2cc1C(N)=O` [Compound I-95, tert-butyl (R)-4-((6-carbamoyl-1-((1-(2-cyanoacetyl)piperidin-3-yl)oxy)-7-isopropoxyisoquinolin-4-yl)ethynyl)piperidine-1-carboxylate]: the pIC50 is 6.07 in test [1] and 7.16 in test [4]. Moreover, the IC50 is 1.56 µM in test [2] and 2.1 µM in test [3].
As to `CC(C)Oc1cc2c(O[C@@H]3CCCN(C(=O)CC#N)C3)ncc(C#CC3CCNCC3)c2cc1C(N)=O` [Compound I-96, (R)-1-((1-(2-cyanoacetyl)piperidin-3-yl)oxy)-7-isopropoxy-4-(piperidin-4-ylethynyl)isoquinoline-6-carboxamide], the pIC50 in test [1] was 5.93; in test [4] it was 8.10. The IC50 in test [2] was 7.84 µM; in test [3], 1.71 µM.
Regarding `CC(C)Oc1cc2c(O[C@@H]3CCCN(C(=O)CC#N)C3)ncc(C#CC3CCN(C)CC3)c2cc1C(N)=O` [Compound I-97, (R)-1-((1-(2-cyanoacetyl)piperidin-3-yl)oxy)-7-isopropoxy-4-((1-methylpiperidin-4-yl)ethynyl)isoquinoline-6-carboxamide], the pIC50 is 6.60 in test [1] and 7.81 in test [4]. Also, the figures for the IC50 in test [2] and in test [3] were 1.98 µM and 0.752 µM, respectively.
With `CCO[C@H]1CC[C@H](C#Cc2cnc(O[C@@H]3CCCN(C(=O)CC#N)C3)c3cc(OC(C)C)c(C(N)=O)cc23)CC1` [Compound I-98, 1-(((R)-1-(2-cyanoacetyl)piperidin-3-yl)oxy)-4-(((1r,4R)-4-ethoxycyclohexyl)ethynyl)-7-isopropoxyisoquinoline-6-carboxamide], the pIC50 was 6.87 in test [1] and 7.59 in test [4]. In addition, the IC50 was 0.484 µM in test [2] and 0.22 µM in test [3].
`CCO[C@H]1CC[C@@H](C#Cc2cnc(O[C@@H]3CCCN(C(=O)CC#N)C3)c3cc(OC(C)C)c(C(N)=O)cc23)CC1` [Compound I-99, 1-(((R)-1-(2-cyanoacetyl)piperidin-3-yl)oxy)-4-((cis-4-ethoxycyclohexyl)ethynyl)-7-isopropoxyisoquinoline-6-carboxamide]: the pIC50 in test [1] was 6.44; in test [4], 7.64. Further, the IC50 in test [2] turned out to be 0.483 µM; in test [3], 0.555 µM.
Taken in the same sequence, the figures for `CC(C)Oc1cc2c(O[C@@H]3CCCN(C(=O)CC#N)C3)ncc(C#C[C@H]3CC[C@](C)(O)CC3)c2cc1C(N)=O` [Compound I-100, 1-(((R)-1-(2-cyanoacetyl)piperidin-3-yl)oxy)-4-(((1r,4R)-4-hydroxy-4-methylcyclohexyl)ethynyl)-7-isopropoxyisoquinoline-6-carboxamide] were 5.85, 7.46, 0.96 µM and 3.3 µM.
Regarding `CC(C)Oc1cc2c(O[C@@H]3CCCN(C(=O)CC#N)C3)ncc(C#C[C@H]3CC[C@@](C)(O)CC3)c2cc1C(N)=O` [Compound I-101, 1-(((R)-1-(2-cyanoacetyl)piperidin-3-yl)oxy)-4-(((1s,4S)-4-hydroxy-4-methylcyclohexyl)ethynyl)-7-isopropoxyisoquinoline-6-carboxamide], the pIC50 in test [1] was 6.12; in test [4], 7.86. Also, the IC50 turned out to be 0.27 µM in test [2] and 3.33 µM in test [3].
In the same order, the values of `CC(C)Oc1cc2c(O[C@@H]3CCCN(C(=O)CC#N)C3)ncc(C#CC3CN(C(=O)OC(C)(C)C)C3)c2cc1C(N)=O` [Compound I-102, tert-butyl (R)-3-((6-carbamoyl-1-((1-(2-cyanoacetyl)piperidin-3-yl)oxy)-7-isopropoxyisoquinolin-4-yl)ethynyl)azetidine-1-carboxylate] are 7.20, 7.45, 0.16 µM and 0.19 µM.
In the same order, the values of `CC(C)Oc1cc2c(O[C@@H]3CCCN(C(=O)CC#N)C3)ncc(C#CC3CNC3)c2cc1C(N)=O` [Compound I-103, (R)-4-(azetidin-3-ylethynyl)-1-((1-(2-cyanoacetyl)piperidin-3-yl)oxy)-7-isopropoxyisoquinoline-6-carboxamide] are 6.08, 8.28, 9.35 µM and 0.441 µM.
`CC(C)Oc1cc2c(O[C@@H]3CCCN(C(=O)CC#N)C3)ncc(C#CC3CN(C)C3)c2cc1C(N)=O` [Compound I-104, (R)-1-((1-(2-cyanoacetyl)piperidin-3-yl)oxy)-7-isopropoxy-4-((1-methylazetidin-3-yl)ethynyl)isoquinoline-6-carboxamide]: the pIC50 in test [1] was 6.80; in test [4], 8.15. Further, the IC50 in test [2] turned out to be 1.76 µM; in test [3], 0.237 µM.
As for `COC1(OC)CC(C#Cc2cnc(O[C@@H]3CCCN(C(=O)CC#N)C3)c3cc(OC(C)C)c(C(N)=O)cc23)C1` [Compound I-105, (R)-1-((1-(2-cyanoacetyl)piperidin-3-yl)oxy)-4-((3,3-dimethoxycyclobutyl)ethynyl)-7-isopropoxyisoquinoline-6-carboxamide], the pIC50 in test [1] was 6.54; in test [4], 8.00. The values for the IC50 in test [2] and in test [3] were 0.603 µM and 0.275 µM, respectively.
